In patent publication US20240400554A1, “MONOACYLGLYCEROL LIPASE (MAGL) INHIBITORS FOR THE TREATMENT OF PAIN AND RELATED MEDICAL DISORDERS” (Humanwell Pharmaceutical US, Inc., priority 2023, published 2024):

Key:
[1] = tested on: 2% formalin model in SD rats; test: Formalin-induced pain model; type: in vivo; conditions: 3 mg/kg p.o.
Protocol: A diluted formalin solution is injected subcutaneously into the hind paw of rats using a microsyringe, creating a continuous noxious stimulus that induces spontaneous pain behaviors in the animals. The experiment can record the number of lifts and licks of the rat's foot through an autonomous movement analyzer to assess the degree of pain. This experiment uses a 2% formalin model in SD rats and tests the analgesic activity of compounds by oral administration. After injecting 2% formalin, the number of movements (lifts and licks of the injected foot) from 0-60 min after injecting the formalin solution is recorded and analyzed.
The Maximum Possible Effect (MPE %) is calculated as a percentage:
Note: (1) MPE % for each group is calculated with sham group MPE=100% and vehicle group MPE=0% as standards. (2) Movement counts of the sham group are subtracted to exclude the impact of background noise on the experiment. (2) “Sham” represents the average value of the sham group; “Vehicle-Sham” represents the average value of the vehicle group minus the sham group.
Results are presented as mean values with standard error. Data from each group are analyzed and graphed using GraphPad Prism 8 software. Statistical analysis is conducted using one-way ANOVA to determine statistical differences between groups, with t-tests used for comparisons between two groups. A p-value <0.05 is considered statistically significant.

[2] = target: T1, human recombinant MAGL (monoacylglycerol lipase) (Homo sapiens, UniProt Q99685); test: In vitro MAGL enzyme inhibition assay (Cayman Monoacylglycerol Lipase Inhibitor Screening Assay, 4-nitrophenylacetate hydrolysis); type: biochemical; conditions: 4-nitrophenylacetate substrate, 15 min preincubation, absorbance 405-415 nm
T1 construct: purchased Cayman Chemical Item No. 705192
T1 sequence (Q99685 1-303): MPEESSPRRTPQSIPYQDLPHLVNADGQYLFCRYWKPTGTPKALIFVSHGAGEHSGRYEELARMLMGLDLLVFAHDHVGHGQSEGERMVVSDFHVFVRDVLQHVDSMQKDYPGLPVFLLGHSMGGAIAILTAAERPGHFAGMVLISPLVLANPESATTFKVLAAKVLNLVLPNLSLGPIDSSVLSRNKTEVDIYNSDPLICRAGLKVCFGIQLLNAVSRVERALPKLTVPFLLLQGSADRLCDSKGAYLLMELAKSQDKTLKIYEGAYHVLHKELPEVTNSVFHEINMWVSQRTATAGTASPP
Protocol: Monoacylglycerol Lipase Inhibitor Screening Assay provides a convenient method for screening human MAGL inhibitors.
Dilute 3 ml of MAGL Assay Buffer (10×) concentrate with 27 ml of ultrapure water. This final 1× Assay Buffer (10 mM Tris-HCl, pH 7.2, containing 1 mM EDTA) should be used in the assay and for the dilution of MAGL enzyme, substrate, and MAGL inhibitor. The 1× Assay Buffer is stable for at least six months if stored at −20° C.
The vial contains 0.5 ml of 17 mM ethanolic solution of 4-nitrophenylacetate. Mix 150 μL of this solution with 450 μl of 1× Assay Buffer prior to testing. This is enough substrate to assay 50 wells. Dilute additional substrate if using the entire plate.
This vial contains 100 μl of a solution of human recombinant MAGL (monoacylglycerol lipase). The thawed enzyme should be stored on ice. Dilute 30 μl of enzyme with 570 μl of 1×MAGL Assay Buffer. This is enough enzyme to assay 50 wells. Dilute additional enzyme if using the entire plate. The diluted enzyme is stable for four hours on ice.
This vial contains 20 nmol of inhibitor. Resuspend in 125 μl of DMSO, then add 125 μl of 1× Assay Buffer and vortex to make an 80 μM stock.
1). 100% Initial Activity Wells—add 150 μl of 1× Assay Buffer, 10 μl of MAGL enzyme, and 10 μl of solvent (same solvent used to dissolve the inhibitor) to three wells.
2). Background Wells—add 160 μl of 1× Assay Buffer and 10 μl of solvent (same solvent used to dissolve the inhibitor) to three wells.
3). Inhibitor/Positive Control Wells—add 150 μl of 1× Assay Buffer, 10 μl of MAGL enzyme, and 10 μl of inhibitor* or positive control inhibitor to the inhibitor wells.
4). Mix the contents of the wells by pipetting gently up and down and incubate for 15 minutes at room temperature. The incubation time for different inhibitors may vary and will need to be optimized by the user.
5). Initiate the reactions by adding 10 μl of MAGL Substrate to all the wells being used. Carefully shake the 96-well plate for 10 seconds to mix and cover with the plate cover. Incubate for ten minutes at room temperature.
6). […] (Tecan Spark 10M Multimode Plate Reader)
1). Determine the average absorbance of each sample.
2). Subtract the average absorbance of the background wells from the average absorbance of the 100% initial activity and the inhibitor wells.
3). Determine the percent inhibition or percent activity for each inhibitor using one of the following equations: […]

- IC50 [2]: 9.1 nM
SMILES: O=C(OC(C(F)(F)F)C(F)(F)F)N1CCC(c2cc3n(n2)-c2ncc(F)cc2CC3)CC1 [Compound 13, 1,1,1,3,3,3-hexafluoropropan-2-yl 4-(7-fluoro-4,5-dihydropyrazolo[1,5-a][1,8]naphthyridin-2-yl)piperidine-1-carboxylate]
- Experimental Results (analgesic activity in the formalin model) [1]: effective
- inhibition in vivo at 3 mg/kg ([1]; Rattus norvegicus, po, 1 h, movements (lifts and licks) 0-60 min after formalin, read-out: MPE % (Maximum Possible Effect)): 49%
